Assay results published in patent US20170105969A1, “CENICRIVIROC FOR THE TREATMENT OF HIV-2 INFECTION” (Tobira Therapeutics, Inc., priority 2014, published 2017).
Counter-ions that a name gives are not always drawn. Like-named read-outs stand apart in the source and are kept apart here. Marks after values point to notes of the source that are not given here.

Tests used:
[1] = biological target: T1, CCR2 (Homo sapiens, UniProt P41597); assay: CCR2 receptor occupancy / internalization in PBMCs (monocytes) by flow cytometry; format: cell-based
T1 construct: endogenous in cells; host or cells: monocytes within PBMCs from 5 HIV+ and 5 HIV- subjects
T1 sequence (P41597 1-360 isoform P41597-2): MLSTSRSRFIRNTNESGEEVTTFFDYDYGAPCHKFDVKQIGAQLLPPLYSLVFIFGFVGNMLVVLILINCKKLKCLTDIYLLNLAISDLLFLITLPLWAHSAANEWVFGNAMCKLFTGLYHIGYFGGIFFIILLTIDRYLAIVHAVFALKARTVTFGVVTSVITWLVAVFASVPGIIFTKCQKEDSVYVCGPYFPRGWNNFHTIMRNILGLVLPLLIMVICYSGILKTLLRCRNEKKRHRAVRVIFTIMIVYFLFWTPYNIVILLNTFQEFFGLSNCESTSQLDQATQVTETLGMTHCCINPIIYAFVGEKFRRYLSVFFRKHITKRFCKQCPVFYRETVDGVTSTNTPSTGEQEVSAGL
Method: (§1) The capacity of each drug to inhibit CCR5 or CCR2 internalization was evaluated. Cell-surface expression of CCR5 and CCR2 was assessed by flow cytometry, and fluorescence values were converted into molecules of equivalent soluble fluorescence (MESF).

[2] = APRI and FIB-4 fibrosis scores, post-hoc analysis of Study 202; format: in vivo, human
Method: Change in score category from baseline (BL) to Weeks 24 and 48 was assessed in patients with non-missing data. Correlations between changes from BL in APRI and FIB-4 scores, and MCP-1 (CCR2 ligand) and sCD14 (inflammatory biomarker) levels were evaluated.

[3] = test system: HIV-1; assay: Study 202: virologic response (plasma HIV-1 RNA <50 copies/mL), Snapshot algorithm, ITT; format: in vivo, human; conditions: Week 24; EFV arm
Source text: The primary efficacy endpoint was the percentage of subjects with plasma HIV-1 RNA <50 copies/mL at Week 24 (using the FDA Snapshot algorithm and the ITT population).

[4] = test system: HIV; assay: Ex vivo intracellular HIV DNA (qPCR) in PBMCs of Study 202 subjects; conditions: EFV 600 mg arm, Week 24
Method: (§2) Early (strong-stop) and late (full-length) reverse transcript levels were measured by qPCR. […] P24 and viral load levels were measured by ELISA and qRT-PCR after 4 hours.

[5] = test system: HIV-1; assay: Study 202: virologic response (plasma HIV-1 RNA <50 copies/mL), Snapshot algorithm, ITT; format: in vivo, human; conditions: for virologic non-response, subgroup with high baseline viral load (≧100,000 copies/mL): EFV
[6] = Solubility of cenicriviroc mesylate; format: physicochemical
[7] = test system: HIV-2 clinical isolates; assay: HIV-2 phenotypic susceptibility, ANRS PBMC method; format: cell-based
Method: All patients were infected with HIV-2 group A. Tropism was determined phenotypically using Ghost(3) cell lines expressing CD4 receptor and one HIV coreceptor, CCR5 or CXCR4. Both Ghost(3) cell lines carries a humanized green fluorescent protein (GFP) gene, under the control of a HIV-2 LTR. […] Ghost(3) cells were provided by the NIH AIDS Reagent program.
Briefly, cell-free HIV-2 positive supernatant was serially diluted (1, 10^−1, and 10^−2) and incubated with PBMC for viral titration. Viruses were tested at a 100 TCID50 titration. Cells were pre-incubated with cenicriviroc or maraviroc at an appropriate concentration 1 hour before viral infection. Six serial dilutions of the antiretroviral drug were tested in quadruplicate. On day 4, viral replication was assessed by a specific viral load assay (Generic HIV-2 viral load, Biocentric, France).

[8] = biological target: CCR5 (Homo sapiens, UniProt P51681); assay: CCR5 receptor occupancy / internalization in PBMCs by flow cytometry; format: cell-based
Method: as §1

[9] = test system: HIV-1; conditions: HIV-1 (n = 43); Dorr et al. (2005); read-out: Median IC50; cited from earlier work
[10] = test system: HIV-1; assay: HIV-1 susceptibility to maraviroc, observed results; format: cell-based; conditions: HIV-1 (n = 4)
[11] = test system: CCR5-tropic HIV-1 BaL; assay: PM-1 cells infected with HIV-1 BaL, supernatant P24 and viral load after 4 hours; format: cell-based; conditions: CVC 20 nM or MVC 50 nM
Method: as §2

[12] = HIV-2 isolate 10-046, group A, R5
[13] = HIV-2 isolate 10-051, group A, R5
[14] = HIV-2 isolate 10-055, group A, X4
[15] = HIV-2 isolate 10-056, group A, R5
[16] = HIV-2 isolate 10-069, group A, Dual
[17] = HIV-2 isolate 10-074, group A, R5
[18] = mixed R5/X4 HIV-2 clinical isolate, first of two
[19] = mixed R5/X4 HIV-2 clinical isolate, second of two

Sequence of CCR5 (P51681 whole entry): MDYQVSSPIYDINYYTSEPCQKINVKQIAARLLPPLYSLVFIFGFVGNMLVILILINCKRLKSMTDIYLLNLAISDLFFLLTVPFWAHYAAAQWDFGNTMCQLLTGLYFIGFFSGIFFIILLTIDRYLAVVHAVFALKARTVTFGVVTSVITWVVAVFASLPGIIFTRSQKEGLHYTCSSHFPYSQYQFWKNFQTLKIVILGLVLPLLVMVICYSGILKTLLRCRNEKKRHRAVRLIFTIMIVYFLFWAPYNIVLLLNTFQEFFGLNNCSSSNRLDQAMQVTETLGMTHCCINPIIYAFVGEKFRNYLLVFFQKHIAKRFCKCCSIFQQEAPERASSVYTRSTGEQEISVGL

For `CSc1ccc(C(=O)N[C@@H]2CCCC[C@@H]2NC(=O)CNC(=O)c2cc(C(F)(F)F)ccc2NC(=O)NC(C)C)cc1` [BMS-22, reference compound], the “average concentration required to reach >80% receptor occupancy” value ([1]; CCR2, monocytes) was 18 nM and the “CCR2 cell-surface expression (in words)” value ([1]; in the absence of MCP-1, monocytes) was “slightly increased CCR2 cell-surface expression”.
With `O=C1Nc2ccc(Cl)cc2[C@@](C#CC2CC2)(C(F)(F)F)O1` [EFV, efavirenz, reference compound] the “patients in APRI category 0.5-1.5” value ([2]; Baseline) was 4%, the “patients in APRI category <0.5” value ([2]; Baseline) was 96% and the “patients in FIB-4 category <1.45” value ([2]; Baseline) was 100%. The “APRI: Decreased 1 category from baseline” value ([2]; Week 24) was 5%, the “patients in APRI category <0.5” value ([2]; Week 24) was 100% and the “patients in FIB-4 category <1.45” value ([2]; Week 24) was 100%. For the same compound, the “APRI: Decreased 1 category from baseline” value ([2]; Week 48) was 6%, the “patients in APRI category <0.5” value ([2]; Week 48) was 100% and the “patients in FIB-4 category 1.45-3.25” value ([2]; Week 48) was 6%. For the same compound, the “patients in FIB-4 category <1.45” value ([2]; Week 48) was 94%, the “Discontinued study due to AE or death” value [3] was “(18%)” and the “HIV-1 RNA ≧50 but <400 copies/mL” value [3] was “(4%)^f”. The “Strong-stop HIV DNA decline (marker of HIV entry)” value [4] was “no decline”, the “virologic non-response, subgroup with high baseline viral load (≧100,000 copies/mL)” value ([5]; Week 24) was 25% and the “virologic non-response, subgroup with high baseline viral load (≧100,000 copies/mL)” value ([5]; Week 48) was 25%. For the same compound, the “Discontinued study due to AE or death” value ([5]; Week 48, EFV arm) was “(21%)”.
With `CCCCOCCOc1ccc(-c2ccc3c(c2)C=C(C(=O)Nc2ccc([S@@+]([O-])Cc4cncn4CCC)cc2)CCCN3CC(C)C)cc1` [cenicriviroc mesylate, (S)-8-[4-(2-Butoxyethoxy)phenyl]-1-isobutyl-N-(4-{[(1-propyl-1H-imidazol-5-yl)methyl]sulfinyl}phenyl)-1,2,3,4-tetrahydro-1-benzazocine-5-carboxamide monomethanesulfonoate] the solubility ([6]; 99.5% ethanol) was “sparingly soluble”, the solubility ([6]; acetonitrile, 1-octanol, tetrahydrofuran) was “slightly soluble” and the solubility ([6]; aqueous solution at pH 3) was “sparingly soluble”. The solubility ([6]; aqueous solution from pH 1 to 2) was “freely soluble”, the solubility ([6]; aqueous solution from pH 4 to 13 and in water) was “practically insoluble” and the solubility ([6]; ethyl acetate and diethylether) was “practically insoluble”. For the same compound, the solubility ([6]; glacial acetic acid, methanol, benzyl alcohol, dimethylsulfoxide, N,N-dimethylformamide) was “freely soluble” and the solubility ([6]; pyridine and acetic anhydride) was “soluble”.
With maraviroc [MVC] the “median MPI” value ([7]; 13 R5 HIV-2 clinical isolates) was 93%, the “median MPI” value ([7]; 13 R5 HIV-2 clinical isolates, listed as maraviroc) was 93% and the EC50 [7, 12] was 1.13 nM. The “MPI (%)” value [7, 12] was 93%, the EC50 [7, 13] was 0.48 nM and the “MPI (%)” value [7, 13] was 82%. The EC50 [7, 14] was over 1000 nM, the “MPI (%)” value [7, 14] was 0% and the EC50 [7, 15] was 0.58 nM. The “MPI (%)” value [7, 15] was 90%, the EC50 [7, 16] was over 1000 nM and the “MPI (%)” value [7, 16] was 12%. For the same compound, the EC50 [7, 17] was 0.68 nM, the “MPI (%)” value [7, 17] was 100% and the EC50 ([7]; X4 HIV-2 clinical isolate) was over 1000 nM. For the same compound, the MPI ([7]; X4 HIV-2 clinical isolate) was 0%, the EC50 [7, 18] was 9.4 nM and the MPI [7, 18] was 55%. For the same compound, the EC50 [7, 19] was over 1000 nM, the MPI [7, 19] was 12% and the IC50 ([7]; read-out: Median IC50, HIV-2 (n = 13), Observed Results) was 0.8 nM. For the same compound, the EC50 ([7]; read-out: median EC50, 13 R5 HIV-2 clinical isolates) was 0.8 nM, the “CCR5 receptor occupancy at saturation” value ([8]; CD4+ T cells) was about 86% and the “effective concentration at which saturation of CCR5 was reached” value ([8]; CD4+ T cells) was 12.5 nM. The “CCR5 receptor occupancy at saturation” value ([8]; CD8+ T cells) was about 87%, the “effective concentration at which saturation of CCR5 was reached” value ([8]; CD8+ T cells) was 12.5 nM and the “cell-surface expression of CCR5 (in words)” value ([8]; in the absence of RANTES, PBMCs) was “increased cell-surface expression of CCR5”. The IC50 [9] was 0.4 nM, the “median MPI” value [10] was 74% and the IC50 ([10]; read-out: Median IC50) was 2.4 nM. The “supernatant P24” value ([11]; 0 hrs (baseline)) was 506 ng/mL, the viral load ([11]; 0 hrs) was 1.19×10^10 copies/ml and the “supernatant P24” value ([11]; 4 hrs) was 520 ng/mL. For the same compound, the viral load ([11]; 4 hrs) was 1.67×10^10 copies/ml.
